Common to all, as to type: cell-based
In assay [1] the test system is Porphyromonas gingivalis. Briefly: MBC (Minimum bactericidal concentration), plating on blood agar. Conditions: P. gingivalis, lowest concentration killing at least 99.9% of initial inoculum, plates 48 hours at 37° C. The method, then: (§1) In vitro tests were conducted with a gram positive supragingival plaque bacterium, Streptococcus mutans. In addition, two subgingival plaque bacteria associated with oral malodor were tested, Porphyromonas gingivalis and Fusobacterium nucleatum. The MIC (Minimum Inhibitory Concentrations) study protocol is as follows. Chlorhexidine was used as a positive control and sterile water was used as a negative control. Citral was suspended in 10% methanol with 3.8% Tween 80. […] 96 well microtiter plates were used for this study. Each well contained 5×10^5 colony forming units/ml of bacteria, serially diluted agents and bacterial growth medium. All bacterial cultures were incubated at 37° C. and stationary. Bacterial growth was estimated spectrophotometrically at 660 nm, after 48 hours. The MIC for each test bacteria was defined as the minimum concentration of test compound limiting turbidity to[…]. The MBC (Minimum bactericidal concentrations) were determined using the 96 well microtiter plate serial dilutions as described above for MIC studies. Serial dilution of cultures in wells showing no visible growth were performed and 10 microliters of culture were plated in triplicate on blood agar plates. Viable colonies were scored after incubation of the plates for 48 hours at 37° C. For each test bacterium, the number of CFU/ml were determined in the initial inoculum. The MBC was defined as the lowest concentration of a test compound that killed at least 99.9% of the cells present in the initial inoculum.

Assay [2] has as its system Fusobacterium nucleatum. The description is as above. Particulars: F. nucleatum, lowest concentration killing at least 99.9% of initial inoculum, plates 48 hours at 37° C. The method, then: as §1
A further assay relates to Streptococcus mutans. Briefly: MIC (Minimum Inhibitory Concentration) study, 96 well microtiter plate. Particulars: S. mutans, 5×10^5 CFU/ml, 37° C., turbidity at 660 nm after 48 hours. The method, then: (§2) In vitro tests were conducted with a gram positive supragingival plaque bacterium, Streptococcus mutans. In addition, two subgingival plaque bacteria associated with oral malodor were tested, Porphyromonas gingivalis and Fusobacterium nucleatum. The MIC (Minimum Inhibitory Concentrations) study protocol is as follows. Chlorhexidine was used as a positive control and sterile water was used as a negative control. Citral was suspended in 10% methanol with 3.8% Tween 80. […] 96 well microtiter plates were used for this study. Each well contained 5×10^5 colony forming units/ml of bacteria, serially diluted agents and bacterial growth medium. All bacterial cultures were incubated at 37° C. and stationary. Bacterial growth was estimated spectrophotometrically at 660 nm, after 48 hours. The MIC for each test bacteria was defined as the minimum concentration of test compound limiting turbidity to<absorbance at 660 nm.

For assay [3], the system named is Porphyromonas gingivalis. Described as above. Particulars: P. gingivalis, 5×10^5 CFU/ml, 37° C., turbidity at 660 nm after 48 hours. As to the method:
as §2

Assay [4] deals with Fusobacterium nucleatum. Described as above. Particulars: F. nucleatum, 5×10^5 CFU/ml, 37° C., turbidity at 660 nm after 48 hours. The method, then:
as §2

For two molecules, MBC and MIC results are on record in patent publication US20040253190A1, “Breath Freshening and Oral Cleansing Product Using Citral” (priority 2002, published 2004).

Converted amounts (≈) assume the structure as drawn.

As a reminder, the MBC is the smallest concentration meeting the test's criterion for killing. Low readings indicate more potent killing, high ones less potent killing. For orientation: MIC means the least concentration at which growth counts as inhibited. `CC(C)=CCCC(C)=CC=O` [citral]: the values for the minimum bactericidal concentration (MBC) in the assay with Porphyromonas gingivalis [1] and against Fusobacterium nucleatum [2] were 125 µg/mL (≈ 821 µM) and 31.3 µg/mL (≈ 206 µM), respectively. Further, the minimum inhibitory concentration (MIC) came out at 500 µg/mL (≈ 3280 µM) against Streptococcus mutans, 62.5 µg/mL (≈ 411 µM) against Porphyromonas gingivalis [3] and 15.6 µg/mL (≈ 102 µM) against Fusobacterium nucleatum [4].

`[H]/N=C(\N/C(=N/[H])NCCCCCCNC(=N)NC(=N)Nc1ccc(Cl)cc1)Nc1ccc(Cl)cc1` [Cholorhexidine, Chlorhexidine, reference compound]: the minimal bactericidal concentration (MBC) against Porphyromonas gingivalis [1] and in the assay with Fusobacterium nucleatum [2] was 1.25 µg/mL (≈ 2.47 µM) throughout. The minimum inhibitory concentration (MIC) in the assay on Porphyromonas gingivalis [3] and against Fusobacterium nucleatum [4] was 1.25 µg/mL (≈ 2.47 µM) in each case.
